Test results reported in PubChem BioAssay (NCI).
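96-well plates; 48 h exposure; 5 concentrations. Endpoints by linear interpolation between flanking doses. Not reached: highest tested concentration assigned. At the TGI there is no net growth.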

How the values were obtained:
Assay in all cases: growth of human tumour cells (NCI), 48 h
[1] = tested on: HL-60(TB) leukemia
[2] = tested on: MOLT-4 leukemia
[3] = tested on: NCI/ADR-RES ovarian
[4] = tested on: SF-539 CNS
[5] = tested on: NCI-H460 lung
[6] = tested on: SK-OV-3 ovarian
[7] = tested on: A549 NSCLC
[8] = tested on: MCF7 breast
[9] = tested on: EKVX NSCLC
[10] = tested on: MDA-N

Compound | TGI [1] [µM] | TGI [2] [µM] | TGI [3] [µM] | TGI [4] [µM] | TGI [5] [µM] | TGI [6] [µM] | TGI [7] [µM] | TGI [8] [µM] | TGI [9] [µM] | TGI [10] [µM]
C=C1CC2C[C@H](OS(=O)(=O)c3ccc(C)cc3)C(C1)N2C (stereo not given in full) | > 100 | > 100 | > 100 | > 100 | > 100 | > 100 | > 100 | > 100 | > 100 | > 100
Cc1cc(S(=O)(=O)Nc2n[nH]c(N)n2)c(S)cc1Cl | > 10 | > 10 | > 10 | > 10 | > 10 | > 10 | > 10 | > 10 | > 10 | > 10
CO/C=C(/C(=O)OC)c1ccccc1[C@H]1C[C@@H]1c1ccccc1 | 63.3 | > 100 | 68.2 | 42.7 | 88.6 | 51.2 | 83.8 | > 100 | 54.6 | 71.9
CC1CN=C(N(C(=O)Nc2ccccc2)C2CCCCC2)S1 (stereo not given) | 35.6 | 38.8 | 33.3 | 43.2 | 33.9 | > 100 | 34.2 | 31.8 | 35.4 | 30.1
NC(=O)c1nnc2c(F)cccc2c1N | > 100 | > 100 | > 100 | > 100 | > 100 | > 100 | > 100 | > 100 | > 100 | > 100
CC1C/C(=C\c2ccc(O)c(O)c2)C(=O)/C(=C/c2ccc(O)c(O)c2)C1 (stereo not given) | 8.42 | 20.3 | 57.7 | 13 | 32.2 | 53.1 | 32.8 | 14.8 | 30.1 | 15.7
CN1CCN(C2CC(=O)c3c(Cl)sc(Cl)c32)CC1 (stereo not given) | 46 | > 51.9 | > 59 | 49.6 | > 75.3 | > 90 | > 52.9 | > 100 | > 55.5 | 35
CCOC(=O)N1c2c(c3ccccc3n2C(=O)OCC)C(=O)C(OC)N1C(=O)OCC (stereo not given) | 49.8 | 50.8 | 62.1 | 74.7 | > 100 | > 100 | > 100 | > 100 | > 100 | > 100
Cc1nc2cccc(F)c2c(=O)n1-c1nnc(C2CC2)s1 | > 10 | > 10 | > 10 | > 10 | > 10 | > 10 | > 10 | > 10 | > 10 | > 10
CC(=O)c1c2c(cc3c1CCC3)CCC2 | > 100 | > 100 | > 100 | > 100 | > 100 | > 100 | > 100 | > 100 | > 100 | > 100
O=C1CSC(c2cc3cc(Br)ccc3nc2Cl)N1c1ccc(F)c(Cl)c1 (stereo not given) | > 50 | 32.9 | > 50 | > 50 | > 50 | > 50 | > 50 | > 50 | > 50 | > 50
COc1ccc(C2CCc3c(cnc4nc(N)nc(N)c34)C2)cc1 (stereo not given) | > 100 | > 100 | > 100 | > 100 | > 100 | 50.1 | > 100 | 45.1 | > 100 | > 100
COc1nc2ncc([C@@H](O)[C@H](O)CO)nc2c(=O)[nH]1 | > 100 | > 100 | > 100 | > 100 | > 100 | > 100 | > 100 | > 100 | > 100 | > 100
Nc1nn2cc(-c3ccccc3)[n+](CC(=O)c3ccccc3)c2s1 | > 100 | 51.2 | > 100 | 42.3 | > 100 | > 100 | > 100 | 24.6 | > 100 | > 100
COC1OC(=O)C(OC)C(OC)C1OC (stereo not given) | > 100 | > 100 | > 100 | > 100 | > 100 | > 100 | > 100 | > 100 | > 100 | > 100
CCOC(=O)CCC1(C(=O)O[C@@H]2C[C@H](C)CC[C@H]2C(C)C)CCCCC1=O (stereo not given in full) | 57.6 | > 100 | > 100 | > 100 | > 100 | > 100 | > 100 | > 100 | > 100 | > 100
